Assay results as given in US6520981B1, “Significance of dosimetry in photodynamic therapy of injured arteries” (The General Hospital Corporation, priority 1999, dated 2003).
Several values for one entry are separate records, joined by “and”; a condition that tells them apart may be missing. Equal values may be shown once. Entries after “also recorded” stand apart in the source; their conditions may differ. Read-outs that look alike come from different tables or passages of the source. Marks after values point to notes of the source that are not given here.

Assays:
intimal hyperplasia = conditions: for as long as 6 months after PDT; cited from earlier work
versican mRNA = assay: Digoxigenin in situ hybridization, versican; format: in vivo, rat; conditions: group PDT: MB 250 μg/ml, 660 nm, 100 J/cm^2; 2 weeks
Text: (§1) Digoxigenin in situ hybridization: Groups for in situ hybridization included PDT, BI, and the uninjured contralateral artery (n=3). […] Complementary DNAs (cDNAs) for type I procollagen and versican core protein were obtained as PCR fragments with each gene specific primers in which reverse primers contain T7 RNA polymerase recognition sequence at their 5′ end. Primer sequences were as follows. […] Digoxigenin-labeled antisense RNA probes were synthesized using a RNA labeling kit (Boehringer, Mannheim, Germany) according to the manufacturers' instruction and the in situ hybridization protocol used with modifications as previously described. Arterial sections were deparafinized in xylene and rehydrated through graded ethanol solutions, washed, and treated with 5 μg/ml proteinase K (Boehringer) for 30 min at 37° C. […] The hybridized probes were detected using an alkaline phosphatase conjugated anti-digoxigenin monoclonal antibody (Boehringer), and the colored product was visualized using Nitro Blue tetrazolium (Boehringer) and 5-bromo-4-chlor-indonyl-phosphate (Boehringer) as substrates. […] For statistical analysis, the median data point of every specimen was assessed and used to compare control versus PDT procollagen type I and veriscan gene expression.
(§2) Statistical Evaluation: All values are expressed as a mean ± SD.

procollagen type I mRNA = assay: Digoxigenin in situ hybridization, procollagen type I; format: in vivo, rat; conditions: group PDT: MB 250 μg/ml, 660 nm, 100 J/cm^2; 2 weeks
Text: as §1, §2

[1] = system: balloon-injured rat common carotid artery (intimal hyperplasia); assay: PDT with locally delivered methylene blue in balloon-injured rat carotid artery: light microscopy and histomorphometry; format: in vivo; conditions: 2 weeks
Description: Control animals included BI along and MB after BI alone. Arteries were analyzed after 2 weeks with morphometric evaluation (per group: n=6), and in situ hybridization for versican and pro-collagen type 1 gene expression (digitized image pixel analyses, n=9).
Common carotid artery balloon injury was performed using a 2-French Fogarty embolectomy catheter (Baxter Health Care Corporation, Edwards Division, Irvine, Calif.). […] In brief, the balloon was introduced into the common carotid artery and inflated with 0.65 mL of air. […] The catheter was connected via a three-way stopcock to a Stratham transducer for synchronous pressure monitoring (HP 78205C, Hewlett Packard, Mass.). […] Under low ambient light, the drug was injected into the common carotid artery with 180 mm HG for 2 minutes. […] The external carotid artery was ligated, and the blood flow was restored.
The animals were randomly assigned to the following 3 groups: Group PDT (n=6): balloon injury followed by application of photosensitizer and laser irradiation; Group PS (n=6): balloon injury followed by the photosensitizer MB application alone; Group BI (n=6): no treatment other than balloon-injury (BI) to the carotid artery.
Photodynamic Therapy: Five minutes after local delivery of MB, the common carotid artery was externally irradiated with 660 nm laser light, emitted by a diode laser (Alto-Surgeon SRG-3, Polaroid, Cambridge, Mass.) to deliver a total fluence of 100 J/cm^2 at an irradiance of 100 mW/cm^2. The diode laser was coupled to a 600-μm optical fiber through a microlens to obtain a uniform 1-cm spot. The targeted artery was submerged in 0.9% saline and placed on a right-angled reflective mirror to achieve uniform irradiation, as previously described. The irradiated vessel segment was marked with periadventitial India ink.
Harvest: Animals were sacrificed 14 days after surgery by an overdose of pentobarbital. Following sacrifice, the iliac artery was cannulated and the arterial system was flushed with saline and in situ perfusion-fixed at 150 mm Hg with 10% buffered formalin. The balloon-injured vessel segments and the contralateral carotid artery were excised and placed in fresh 10% buffered formalin. After embedding in paraffin, multiple 4 μm thick cross sections were obtained from the proximal, mid, and distal vessel segments.
Vessel Histomorphometry: The histologic analyses of the arteries stained with hematoxylin and eosin consisted of both a descriptive and quantitative morphometric evaluation. The morphometry of the arteries was measured using a digitizing measurement system (Color CCB Camera Model 2222-1010, COHU Inc., San Diego, Calif.) and analyzed using the Scion Image software (Scion Corporation, Frederick, MY). Intimal area, medial area, and vessel diameter, as delineated by the external elastic lamina, were measured and calculated as previously described. In addition, adventitial cells were counted manually and are expressed as the number of cells per high power microscopic field (×400). Because the area of the adventitia varies within the different specimens, high power fields were used for all quantitative measurements of adventitial cell numbers and gene expression in the in situ hybridization experiments.

[2] = system: balloon-injured rat common carotid artery (intimal hyperplasia); conditions: for Intimal Area: 690 nm
Description: Male Sprague Dawley rats (Charles River Breeding Laboratories, Wilmington, Mass.), weighing 350-450 g, were anesthetized with intramuscular Ketamine (75 mg/kg), Xylazine (5 mg/kg), and Atropine (40 μg/kg). A midline neck incision was performed and the left carotid artery was exposed. After clamping the common carotid and the internal carotid artery, a 2 F (French Fogarty embolectomy catheter (Baxter Health Care Corporation, LIS Division, Irvine, Calif.) was introduced into the common carotid artery via the external carotid artery. The common carotid artery was subsequently injured by inflating the balloon with 0.2 ml air and gently passing and rotating the catheter three times.
After balloon-injury, a 22 gauge polyethylene catheter was advanced through the external carotid arteriotomy into the distal portion of the common carotid artery and secured with a suture. The catheter was connected via three-way stopcock to a Statham transducer for synchronous pressure monitoring with a digital pressure manometer (HP 78205C, Hewlett Packard, Palo Alto, Calif.). The second generation photosensitizer benzoporphyrin-derivative monoacidic ring (BPD-MA Verteporfine®, Quadra Logic Technologies Inc., Vancouver, BC, Canada), provided as a liposomal preparation, was reconstituted in distilled water (2 mg/ml) and diluted in physiologic saline to a final concentration of 25 μg/ml. Once the arterial segment was isolated with microclamps under low ambient light, BPD was delivered at a pressure of 400 mm Hg for two minutes. […] Following aspiration of BPD from the arterial lumen, the artery was flushed with saline, the catheter was removed, and blood flow was restored to the internal carotid artery.
Photodynamic Therapy. Fifteen minutes following delivery of the PS to the artery wall, the common carotid artery was externally irradiated as previously described. Briefly, an argon-pumped dye laser (Coherent Innova I 100 and Coherent CR 599, Coherent, Palo Alto, Calif.) was tuned to 690 nm light at an irradiance of 100 mW/cm^2, coupled to a 600 μm optical fiber, and using a 5-mm focal length lens magnified to obtain a uniform 2-cm spot. The targeted artery was submerged in physiologic saline, placed on a right-angled reflective mirror, and optically isolated with black, light-impervious tape.
Experimental groups. The arteries were assigned to four different experimental groups: group 1 (n=6) and 2 (n=6) consisted of arteries which were pressurized with 0.5 μg/ml BPD and irradiated at a fluence of 50 and 100 J/cm^2 respectively. Group 3 (n=15) and 4 (n=4) were pressurized with 25 μg/ml BPD and irradiated at 100 or 200 J/cm^2 respectively.
Harvest. The animals were sacrificed 24 hours and 2 weeks after PDT. The carotid artery was flushed with saline. They were either in situ perfusion-fixed at 80 mm Hg with 10% buffered formalin for light microscopy or rinsed with saline, embedded in Tissue tek O.C.T. compound® (Miles Inc. Elkhart, IN) and stored at −70° C. for immunohistochemistry.
Histology. For each animal, the harvested artery was processed into three segments: proximal, mid, and distal. Multiple five-μm thick cross-sections were prepared from each specimen of the artery, and a representative from each segment was analyzed. All paraffin-embedded specimens were stained with hematoxylin and eosin. Arterial diameters, as delineated by the length of the internal elastic lamina (IEL circumference=πd), as well as intimal—and medial areas were measured using morphometric analysis with a camera lucida digitizing measurement system as previously described (Sigma Scan, Jandel Scientific, San Rafael, Calif.).

[3] = Observation of BPD-treated animals at harvest; format: in vivo, rat; conditions: rats after local delivery of BPD
[4] = 15 minutes following delivery of BPD at 400 mm Hg for two minutes; previous studies; cited from earlier work
[5] = system: basic fibroblast growth factor (bFGF); assay: Immunohistochemistry for bFGF in arteries after BPD-PDT; format: in vivo, rat; conditions: 100 J/cm^2
Text: Harvest. […] The carotid artery was flushed with saline.
Immunohistochemistry. Immunohistochemistry for basic fibroblast growth factor (bFGF) was undertaken to verify possible differential, dose-dependent effects on this growth factor which resides in the vascular wall and is known to play an important role in the early development of IH in rats. Monoclonal antibody to bFGF (Zymogenetics, Seattle, Wash.) was used to verify the presence of bFGF in the specimens using the two-layer indirect immunoperoxidase technique previously described. Briefly, the primary antibody (1:1000) was labeled by biotinylated horse anti-mouse immunoglobulin (Vector Laboratories, Burlingame, Calif.) and counterstained with nuclear fast red (Sigma Chemical Co., St. Louis, Mo.). Normal arteries were used as positive control, and arteries stained with a nonspecific primary antibody were used as negative controls to exclude nonspecific binding by the primary or secondary antibody.

[6] = group PDT: MB 250 μg/ml, 660 nm, 100 J/cm^2
[7] = group PS: MB alone without irradiation
[8] = group 1: 0.5 μg/ml BPD, 50 J/cm^2, 2 weeks
[9] = group 2: 0.5 μg/ml BPD, 100 J/cm^2, 2 weeks
[10] = group 3: 25 μg/ml BPD, 100 J/cm^2, 2 weeks
[11] = group 4: 25 μg/ml BPD, 200 J/cm^2

## chloraluminum sulfonated phthalocyanin
Intimal hyperplasia
  Inhibition of IH after PDT: inhibition of IH without arterial degeneration

## CN(C)c1ccc2nc3ccc(=[N+](C)C)cc-3sc2c1 [MB, methylene blue]
Versican mRNA
  Versican mRNA in adventitia, % of positive pixels per high power field: 1.13%±0.39% and 1.11±0.37%
MB study, at harvest (14 days)
  Artery thrombosis: No artery thrombosis
rat, in vivo
  Signs of toxicity: no signs of toxicity
Procollagen type I mRNA
  Pro-collagen type I mRNA in adventitia, % of positive pixels per high power field: 4.13%±1.25%
[1]; [6]
  Diameter: 0.95±0.04 mm
  Histology of arteries: without evidence of microthrombi, inflammation, or intimal thickening; also recorded: no IH was seen
  Medial Area: 0.063±0.004 mm^2
[1]; group PDT: MB 250 μg/ml, 660 nm, 100 J/cm^2, ×400
  Number of adventitial cells per high power field: 39±9.4
[1]; group PDT: balloon injury, MB 250 μg/ml locally, 660 nm, 100 J/cm^2
  IH area: 0±0 mm^2
[1]; [7]
  Histology of arteries: no MB-induced modulation of the vascular injury healing response; also recorded: IH formation was demonstrated
  Medial Area: 0.085±0.005 mm^2
[1]; group PS: balloon injury, MB alone without irradiation
  IH area: 0.183±0.05 mm^2

## benzoporphyrin-derivative monoacid ring [BPD]
[2]; group 1 / stage I: 0.5 μg/ml BPD, 50 J/cm^2, 2 weeks
  Intimal hyperplasia, histology: significant IH
[2]; [8]
  Diameter: 0.93 ± 0.02 mm
  Medial Area: 0.18 ± 0.01 mm^2
  Intimal Area: 0.18±0.03 mm^2
[2]; [9]
  Diameter: 0.95 ± 0.06 mm
  Medial Area: 0.18 ± 0.05 mm^2
  Intimal Area: 0.14±0.03 mm^2
[2]; [10]
  Diameter: 0.82 ± 0.04 mm
  Medial Area: 0.10 ± 0.02† mm^2
  Intimal Area: 0.01 ± 0.01*‡ mm^2
[2]; [11]
  Diameter: 0.91 ± 0.03 mm
  Medial Area: 0.17 ± 0.01 mm^2
[3]
  Signs of systemic phototoxicity: no signs of systemic phototoxicity
[4]
  Photosensitizer fluorescence in the arterial wall: detected through the entire arterial wall
[5]; group 2 / stage II: 0.5 μg/ml BPD, 24 hours after PDT
  bFGF staining of the vascular wall: evidence of bFGF in all layers of the vascular wall; also recorded: bFGF could still be detected in all layers of the vascular wall; also recorded: positive staining for bFGF in all layers of the vascular wall; also recorded: avid brown staining in all layers of the vascular wall
[5]; group 3 / stage III: 25 μg/ml BPD, two weeks after PDT
  bFGF staining of the vascular wall: evidence for bFGF in the flat cells, presumably endothelial cells, at the luminal surface; also recorded: positive bFGF staining only of endothelial cells in the intima and fibroblasts in the adventitia
